Data on one compound can be found in patent US20150252048A1, “SUBSTITUTED N-(3-PYRIMIDIN-4-YL)PHENYL)ACRYLAMIDE ANALOGS AS TYROSINE RECEPTOR KINASE BTK INHIBITORS” (UNIVERSITY OF UTAH RESEARCH FOUNDATION, priority 2012, published 2015).

The target in one series is BTK (Homo sapiens, UniProt Q06187). The experiment in a line: Specific kinase IC50 assay. It is filed as biochemical. The note with it: 1 μM ATP, 10-dose, duplicate. On the procedure:
In addition, the compound IC50 was determined in six specific kinase assays. The kinases that the compound was assayed against were as follows: BMX/ETK, BTK, EGFR (T790M), ERBB4/HER4, JAK3, and TEC. The assays were carried out in the presence of 1 μM ATP and were conducted in a 10-dose format in duplicate with three-fold serial dilutions starting at 10 μM. The calculated IC50s are shown in Table IX, and representative dose response curves from these assays are shown in FIG. 5 (Panels A: BMX/ETK kinase assay; Panel B: BTK kinase assay; Panel C: EGFR (T790M) kinase assay; Panel D: ERBB4/HER4 kinase assay; Panel E: JAK3 kinase assay; and Panel F: TEC kinase assay). The data in Figure show the individual assay duplicate assay results a line fit to the data; 100% activity is the activity in the […] of test compound. […].

A further series has as its target EGFR (T790M) (Homo sapiens, UniProt P00533, T790M). The experiment in a line: Specific kinase IC50 assay. It is filed as biochemical. The settings on record: 1 μM ATP, 10-dose, duplicate. The procedure:
(§1) The assays were carried out in the presence of 1 μM ATP and were conducted in a 10-dose format in duplicate with three-fold serial dilutions starting at 10 μM.

A further series concerns the target ERBB4/HER4 (Homo sapiens, UniProt Q15303). Description: Specific kinase IC50 assay. Format: biochemical. The note with it: 1 μM ATP, 10-dose, duplicate. The procedure:
as §1

A further series addresses T1, JAK3 (Homo sapiens, UniProt P52333).
T1 sequence (P52333 1-1124): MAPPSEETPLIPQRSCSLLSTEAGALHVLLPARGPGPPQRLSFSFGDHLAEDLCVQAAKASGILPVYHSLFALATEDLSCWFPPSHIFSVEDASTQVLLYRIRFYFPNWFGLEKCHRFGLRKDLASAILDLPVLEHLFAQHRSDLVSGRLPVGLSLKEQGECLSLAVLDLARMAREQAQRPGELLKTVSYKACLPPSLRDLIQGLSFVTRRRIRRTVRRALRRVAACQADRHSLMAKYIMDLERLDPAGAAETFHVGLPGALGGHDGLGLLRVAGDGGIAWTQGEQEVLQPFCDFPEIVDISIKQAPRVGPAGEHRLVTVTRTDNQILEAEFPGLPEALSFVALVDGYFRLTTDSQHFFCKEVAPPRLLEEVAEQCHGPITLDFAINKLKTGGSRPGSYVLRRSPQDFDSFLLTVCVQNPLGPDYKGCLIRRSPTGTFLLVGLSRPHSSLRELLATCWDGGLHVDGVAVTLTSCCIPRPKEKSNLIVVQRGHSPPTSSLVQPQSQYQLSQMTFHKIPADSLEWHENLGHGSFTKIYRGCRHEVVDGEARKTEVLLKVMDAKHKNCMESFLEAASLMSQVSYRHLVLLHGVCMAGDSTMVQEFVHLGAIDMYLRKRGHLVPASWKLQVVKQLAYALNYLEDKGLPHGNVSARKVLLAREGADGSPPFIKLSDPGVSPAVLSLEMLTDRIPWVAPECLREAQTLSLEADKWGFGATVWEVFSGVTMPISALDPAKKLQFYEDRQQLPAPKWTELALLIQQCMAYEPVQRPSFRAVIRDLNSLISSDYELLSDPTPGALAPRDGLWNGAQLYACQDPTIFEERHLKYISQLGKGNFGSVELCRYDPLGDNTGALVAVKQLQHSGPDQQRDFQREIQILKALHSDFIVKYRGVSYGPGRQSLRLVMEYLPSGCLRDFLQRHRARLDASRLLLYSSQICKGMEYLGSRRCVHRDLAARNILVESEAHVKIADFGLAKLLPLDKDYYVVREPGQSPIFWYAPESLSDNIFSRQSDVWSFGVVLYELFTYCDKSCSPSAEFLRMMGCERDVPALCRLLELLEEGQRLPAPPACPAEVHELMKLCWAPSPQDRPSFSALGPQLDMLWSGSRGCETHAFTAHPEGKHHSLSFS
Description: Specific kinase IC50 assay. Format: biochemical. The note with it: 1 μM ATP, 10-dose, duplicate. The procedure:
as §1

The target of a further series is T2, TEC (Homo sapiens, UniProt P42680).
T2 sequence (P42680 1-631): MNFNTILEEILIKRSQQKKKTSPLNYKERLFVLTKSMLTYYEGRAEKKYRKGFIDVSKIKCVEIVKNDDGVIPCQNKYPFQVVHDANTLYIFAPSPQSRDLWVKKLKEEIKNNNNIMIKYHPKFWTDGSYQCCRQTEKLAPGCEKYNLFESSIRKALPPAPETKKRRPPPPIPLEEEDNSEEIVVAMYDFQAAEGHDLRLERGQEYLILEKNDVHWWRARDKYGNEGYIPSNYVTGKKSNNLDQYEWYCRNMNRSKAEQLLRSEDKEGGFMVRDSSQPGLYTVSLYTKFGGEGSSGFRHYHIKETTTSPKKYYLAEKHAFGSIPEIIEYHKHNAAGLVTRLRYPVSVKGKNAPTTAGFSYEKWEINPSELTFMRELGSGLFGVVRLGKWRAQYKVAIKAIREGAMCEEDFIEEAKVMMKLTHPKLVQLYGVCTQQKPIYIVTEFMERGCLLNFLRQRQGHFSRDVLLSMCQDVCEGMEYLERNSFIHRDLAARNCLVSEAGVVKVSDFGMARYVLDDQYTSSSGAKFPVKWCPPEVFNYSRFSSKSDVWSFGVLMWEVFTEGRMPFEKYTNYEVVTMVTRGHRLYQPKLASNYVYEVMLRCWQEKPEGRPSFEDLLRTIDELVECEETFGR
The experiment in a line: Specific kinase IC50 assay. Format: biochemical. The note with it: 1 μM ATP, 10-dose, duplicate. The procedure: as §1

The nature of the next series: Pharmacokinetics in mice. Format: in vivo. The settings on record: mouse, plasma. On the procedure: The pharmacokinetic behavior of a representative disclosed compound, compound 3 (N-(3-(6-((3-morpholinophenyl)amino)-1H-pyrazolo[3,4-d]pyrimidin-4-yl)phenyl)acrylamide), which corresponds to compound 3 in Table I, was evaluated in mice. As used herein, “test compound” refers to compound 3. The study was carried out using three animals per dosing group. Animals were dosed as follows: a) Group 1 were administered 5 mg/kg of test compound by i.v. administration; b) Group 2 were dosed at 10 mg/kg by oral gavage using the base form of the test compound; and c) Group 3 were dosed at 10 mg/kg by oral gavage using a HCl salt of the test compound. Plasma concentration of the test compound was determined on samples take at the following time points: 0.08, 0.25, 0.50, 1, 2, 4, 8, and 24 hrs. Individual values were within 25% of the mean.

Setting [1] is: po, 10 mg/kg, p.o. (HCl salt), 10 mg/kg oral gavage.
[2] abbreviates: po, 10 mg/kg, p.o. (base form), 10 mg/kg oral gavage.

Where two headings read alike, the source gives them in different places.

Chain of BTK (Q06187 whole entry): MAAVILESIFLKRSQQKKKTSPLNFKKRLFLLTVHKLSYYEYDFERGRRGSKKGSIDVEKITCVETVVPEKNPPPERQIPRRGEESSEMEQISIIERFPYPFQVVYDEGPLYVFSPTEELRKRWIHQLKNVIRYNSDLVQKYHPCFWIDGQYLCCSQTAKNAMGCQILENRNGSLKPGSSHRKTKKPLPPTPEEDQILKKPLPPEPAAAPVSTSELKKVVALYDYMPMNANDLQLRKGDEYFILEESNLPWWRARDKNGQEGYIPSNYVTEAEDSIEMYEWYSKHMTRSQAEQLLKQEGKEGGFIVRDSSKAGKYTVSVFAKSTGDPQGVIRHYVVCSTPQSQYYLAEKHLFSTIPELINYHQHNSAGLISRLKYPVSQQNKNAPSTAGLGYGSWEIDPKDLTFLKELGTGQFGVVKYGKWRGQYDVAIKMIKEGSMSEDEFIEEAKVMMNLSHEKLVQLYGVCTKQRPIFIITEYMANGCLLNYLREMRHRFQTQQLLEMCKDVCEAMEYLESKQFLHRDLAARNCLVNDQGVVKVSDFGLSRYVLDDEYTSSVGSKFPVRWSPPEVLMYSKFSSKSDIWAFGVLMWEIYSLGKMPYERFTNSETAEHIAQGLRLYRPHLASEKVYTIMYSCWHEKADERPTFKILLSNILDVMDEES
Chain of ERBB4/HER4 (Q15303 26-1308): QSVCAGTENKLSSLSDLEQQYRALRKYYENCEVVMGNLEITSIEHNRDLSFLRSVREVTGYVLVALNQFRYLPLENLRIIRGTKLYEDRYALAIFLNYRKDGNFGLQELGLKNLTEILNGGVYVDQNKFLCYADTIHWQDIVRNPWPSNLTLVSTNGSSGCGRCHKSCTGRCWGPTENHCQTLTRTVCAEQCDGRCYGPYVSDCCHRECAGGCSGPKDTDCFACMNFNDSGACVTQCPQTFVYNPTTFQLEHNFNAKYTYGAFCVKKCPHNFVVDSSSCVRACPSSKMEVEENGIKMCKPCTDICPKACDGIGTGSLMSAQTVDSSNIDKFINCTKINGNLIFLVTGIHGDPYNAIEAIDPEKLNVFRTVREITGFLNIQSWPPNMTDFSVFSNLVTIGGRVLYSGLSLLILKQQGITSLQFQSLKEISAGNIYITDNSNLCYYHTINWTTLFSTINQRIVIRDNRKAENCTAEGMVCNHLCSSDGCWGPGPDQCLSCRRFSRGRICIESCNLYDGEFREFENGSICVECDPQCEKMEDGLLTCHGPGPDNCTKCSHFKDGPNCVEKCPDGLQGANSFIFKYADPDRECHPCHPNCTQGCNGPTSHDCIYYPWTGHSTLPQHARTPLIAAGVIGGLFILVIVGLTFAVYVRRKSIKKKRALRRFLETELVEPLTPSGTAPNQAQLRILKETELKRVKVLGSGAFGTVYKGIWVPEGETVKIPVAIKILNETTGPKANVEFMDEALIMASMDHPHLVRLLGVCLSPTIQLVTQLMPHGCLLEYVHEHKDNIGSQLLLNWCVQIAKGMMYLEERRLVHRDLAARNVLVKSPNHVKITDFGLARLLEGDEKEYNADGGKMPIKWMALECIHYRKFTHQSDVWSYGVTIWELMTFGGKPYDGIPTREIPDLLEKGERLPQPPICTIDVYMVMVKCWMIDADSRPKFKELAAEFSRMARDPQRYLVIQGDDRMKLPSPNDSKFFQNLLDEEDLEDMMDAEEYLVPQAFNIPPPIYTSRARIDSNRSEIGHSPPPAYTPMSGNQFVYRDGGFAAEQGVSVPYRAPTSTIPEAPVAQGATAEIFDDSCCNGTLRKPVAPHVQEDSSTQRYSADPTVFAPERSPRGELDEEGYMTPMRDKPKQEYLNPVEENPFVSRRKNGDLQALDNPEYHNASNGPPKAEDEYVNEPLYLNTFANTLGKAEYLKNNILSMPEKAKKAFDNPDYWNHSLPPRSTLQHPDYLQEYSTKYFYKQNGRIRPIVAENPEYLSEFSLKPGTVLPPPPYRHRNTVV
Chain of EGFR (T790M) (P00533 25-1210 T790M, species assumed): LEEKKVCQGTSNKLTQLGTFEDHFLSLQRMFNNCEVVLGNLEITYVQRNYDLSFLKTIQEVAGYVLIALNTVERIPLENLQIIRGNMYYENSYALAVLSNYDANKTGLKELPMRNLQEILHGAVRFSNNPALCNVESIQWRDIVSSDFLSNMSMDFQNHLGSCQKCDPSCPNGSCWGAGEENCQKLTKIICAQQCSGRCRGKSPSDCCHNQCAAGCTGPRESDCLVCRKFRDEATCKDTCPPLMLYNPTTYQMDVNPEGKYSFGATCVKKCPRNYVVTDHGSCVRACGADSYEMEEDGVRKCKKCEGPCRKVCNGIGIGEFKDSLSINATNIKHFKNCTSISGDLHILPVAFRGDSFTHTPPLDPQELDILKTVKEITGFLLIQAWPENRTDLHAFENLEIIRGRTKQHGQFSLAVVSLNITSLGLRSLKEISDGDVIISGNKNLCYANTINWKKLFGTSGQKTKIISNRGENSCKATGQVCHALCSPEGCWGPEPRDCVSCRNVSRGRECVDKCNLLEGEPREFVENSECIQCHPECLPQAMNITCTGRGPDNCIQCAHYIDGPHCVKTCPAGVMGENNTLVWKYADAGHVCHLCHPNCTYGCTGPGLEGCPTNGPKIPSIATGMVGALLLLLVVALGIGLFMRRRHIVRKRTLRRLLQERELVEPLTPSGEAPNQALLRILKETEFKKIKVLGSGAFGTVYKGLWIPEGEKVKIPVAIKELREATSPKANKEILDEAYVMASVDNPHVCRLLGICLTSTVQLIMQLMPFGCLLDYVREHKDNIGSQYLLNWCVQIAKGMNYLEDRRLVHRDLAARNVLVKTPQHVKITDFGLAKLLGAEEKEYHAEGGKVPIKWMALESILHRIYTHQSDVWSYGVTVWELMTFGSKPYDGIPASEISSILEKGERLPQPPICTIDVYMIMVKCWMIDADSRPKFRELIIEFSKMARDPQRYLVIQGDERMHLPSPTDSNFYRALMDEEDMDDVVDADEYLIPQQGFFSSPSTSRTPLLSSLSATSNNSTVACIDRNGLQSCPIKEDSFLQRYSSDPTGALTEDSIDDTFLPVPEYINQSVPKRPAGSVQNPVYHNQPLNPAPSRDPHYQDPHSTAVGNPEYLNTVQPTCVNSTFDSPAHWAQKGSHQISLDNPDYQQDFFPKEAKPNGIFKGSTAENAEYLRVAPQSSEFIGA

With `C=CC(=O)Nc1cccc(-c2nc(Nc3cccc(N4CCOCC4)c3)nc3[nH]ncc23)c1` [Compound 3, N-(3-(6-((3-morpholinophenyl)amino)-1H-pyrazolo[3,4-d]pyrimidin-4-yl)phenyl)acrylamide], the IC50 against BTK came to 12.3 nM; against EGFR (T790M) it was 979 nM; against ERBB4/HER4, 17.5 nM; on JAK3 it was 66.6 nM; at TEC it was 50.2 nM. Also, the maximum concentration (Cmax) was 3520 ng/mL in the series “Pharmacokinetics in mice” (iv, 5 mg/kg); 465 ng/mL in “Pharmacokinetics in mice” (setting [1]); 299 ng/mL in “Pharmacokinetics in mice” (setting [2]). Moreover, the Tmax in the series “Pharmacokinetics in mice” (iv, 5 mg/kg) is 4.8 min; in the series “Pharmacokinetics in mice” (setting [1]) it was 15 min; in “Pharmacokinetics in mice” (setting [2]), 30 min. Also, the clearance in “Pharmacokinetics in mice” (iv, 5 mg/kg) was 67 mL/min/kg. Also, the half-life in the series “Pharmacokinetics in mice” (iv, 5 mg/kg) is 90 min. The AUC(0-t) in the series “Pharmacokinetics in mice” (iv, 5 mg/kg, i.v., 5 mg/kg, read-out: AUC0-4) came out at 1180 ng·h/mL; in the series “Pharmacokinetics in mice” (iv, 5 mg/kg, i.v., 5 mg/kg, read-out: AUC0-t), 1230 ng·h/mL; in “Pharmacokinetics in mice” (po, 10 mg/kg, p.o. (HCl salt), 10 mg/kg oral gavage, read-out: AUC0-4), 357 ng·h/mL; in “Pharmacokinetics in mice” (po, 10 mg/kg, p.o. (base form), 10 mg/kg oral gavage, read-out: AUC0-4), 270 ng·h/mL. The Vd in the series “Pharmacokinetics in mice” (iv, 5 mg/kg, read-out: Vss) turned out to be 2.6 L/kg. For the same compound, the bioavailability worked out at 3% in the series “Pharmacokinetics in mice” (setting [1]) and 2.3% in “Pharmacokinetics in mice” (setting [2]).
